In PubChem BioAssay AID1117338 one finds IC50 data, which are given here for eight compounds.

Calls of active or inactive are those of the source. No rule for the calls is given here. Some results are limits rather than exact numbers.

A word on the IC50: it is the point on the concentration scale where inhibition reaches its midpoint.

This assay deals with SW480 viability, CellTiter-Glo luminescence. Briefly: 50% inhibitory concentration in SW480 colon cancer line, survival by CellTiter-Glo luminescence, dose-dependent response (AID 1117338). Background: Cellular ATP, detected with luciferase, serves as a proxy for viable cell number.
With `OCCN1CCN(CC/C=C2/c3ccccc3Sc3ccc(C(F)(F)F)cc32)CC1`, the IC50 is 3930 nM.
With `O=C(O)C1(C(=O)O)CCC1.[NH2-].[NH2-].[Pt+2]` the figure was > 20000 nM (inactive); with `Cc1ccc([N+](=O)[O-])[c]2c1[O][Hg]2`, 1130 nM; with `CCCCCCCCCCCCCC[N+](C)(C)C`, 933 nM.
With `O=C1[O][Bi][O]c2ccccc21` the figure was > 20000 nM (inactive); with `Cn1cnc([N+](=O)[O-])c1Sc1ncnc2nc[nH]c12`, 9440 nM (inactive); with `O=Cc1ccc(O)c(O)c1O`, 11300 nM (inactive).
As for `CC(=O)[O][Hg][c]1ccccc1`, the IC50 was 543 nM.
